Test results as given in US9700058B2, “Dispersion and detachment of cell aggregates” (priority 2011, dated 2017).
Positions of bridges follow the written chain, without caps; N, C: chain ends. No end group written: not given here.

Tests used:
Assay type in all cases: cell-based
[1] = system: Acinetobacter baumannii (clinical isolate); test: Biofilm prevention, crystal violet, 96-well plate; conditions: added simultaneously, 24 h, 37° C.
Description: (§1) The peptides depicted in Table 1 (each with a cysteine attached to the N- and C-terminus of the peptides) were synthesized using solid-phase methods and were purified to 90% (Peptron, Inc.; Taejeon, South Korea). The peptides were dissolved in 20 μl dimethyl sulfoxide and diluted in double distilled water to a concentration of 10 mg/ml. Additional dilutions were performed in phosphate buffered saline (PBS).
(§2) The ability of these peptides to prevent microbial adhesion to a surface or detach microbial adhesion from a surface were measured against the following microbial strains: Pseudomonas aeruginosa (ATCC27853), Staphylococcus aureus (ATCC25923), Candida albicans (ATCC14053) and Acinetobacter baumannii (clinical isolate). […]
(§3) Biofilms of the foregoing microorganisms were grown in a 96-well found-bottom polystyrene plate. Specifically, 180 μl of overnight cultures were added to the wells with 20 μl of each peptide diluted in PBS, either simultaneously to measure prevention or after a period of time to measure detachment from 4 hours up to 24 hours post incubation. After 24 hours of incubation at 37° C., each well was washed with water and stained with 250 μl of crystal violet solution. The crystal violet solution was then removed by thoroughly washing the wells with water. To quantify the number of bacteria cells attached to the wells, the crystal violet was solubilized in 250 μl of 1% sodium dodecyl sulfate and the absorbance was measured at 595 nm.

[2] = system: Candida albicans (ATCC14053); test: Biofilm prevention, crystal violet, 96-well plate; conditions: added simultaneously, 24 h, 37° C.
Description: as §1, §2, §3
(§4) The ability of these peptides to (1) prevent microbial adhesion to a surface and to (2) detach microbes already adhered to a surface were measured against the following microbial strains: Pseudomonas aeruginosa (ATCC27853), Staphylococcus aureus (ATCC25923), Candida albicans (ATCC14053) and/or Escherichia coli. The resulting percentage of prevention or detachment, relative to control wells in which the microbes was allowed to culture in the absence of peptides, are indicated in FIGS. 13 to 16.

[3] = system: Pseudomonas aeruginosa (ATCC27853); test: Biofilm prevention, crystal violet, 96-well plate; conditions: added simultaneously, 24 h, 37° C.
Description: as §1, §2, §3, §4

[4] = system: Staphylococcus aureus (ATCC25923); test: Biofilm prevention, crystal violet, 96-well plate; conditions: peptide 100 ng/ml, added simultaneously, 24 h, 37° C.
Description: as §1
(§5) The ability of these peptides to prevent microbial adhesion to a surface or detach microbial adhesion from a surface were measured against the following microbial strains: Pseudomonas aeruginosa (ATCC27853), Staphylococcus aureus (ATCC25923), Candida albicans (ATCC14053) and Acinetobacter baumannii (clinical isolate). Specifically, peptides diluted to concentrations of 100 ng/ml were incubated with the foregoing microbes for 24 hours.
as §3, §4

[5] = system: Staphylococcus aureus (ATCC25923); test: Biofilm detachment, crystal violet, 96-well plate; conditions: peptide 100 ng/ml, added after adhesion
Description: as §1, §5, §3, §4

[6] = system: Candida albicans (ATCC14053); test: Biofilm detachment, crystal violet, 96-well plate; conditions: peptide 100 ng/ml, added after adhesion
Description: as §1, §5, §3, §4

[7] = system: Pseudomonas aeruginosa (ATCC27853); test: Biofilm detachment, crystal violet, 96-well plate; conditions: peptide 100 ng/ml, added after adhesion
Description: as §1, §5, §3, §4

[8] = system: Acinetobacter baumannii (clinical isolate); test: Biofilm detachment, crystal violet, 96-well plate; conditions: peptide 100 ng/ml, added after adhesion
Description: as §1, §5, §3

[9] = system: Pseudomonas aeruginosa (ATCC 27853); test: Detachment of pre-formed biofilm from a well (Examples 1-7); conditions: different concentrations
Description: A biofilm was created by incubating Pseudomonas aeruginosa (ATCC 27853) overnight in wells at 37° C., allowing the microorganism to attach to the well surface. Eqt2Z-cyc peptide [Custom Peptide Synthesis; Peptron, Korea] at different concentrations was subsequently added to the wells and allowed to incubate overnight. The P.a. control was Pseudomonas aeruginosa alone.
(§6) A biofilm was created by culturing Pseudomonas aeruginosa (ATCC 27853) for 2 hours in a well at 37° C. Eqt2Z-cyc peptide at different concentrations was subsequently added to the well and allowed to incubate overnight. The Abac10-cyc peptide served as a negative control. The P.a. control was Pseudomonas aeruginosa alone.
as §6, with “for 24 hours.” for “overnight.”, “alone. […] Staining was performed with crystal violet at OD 595 nm.” for “alone.”
A biofilm was created by culturing Pseudomonas aeruginosa (ATCC 27853) for 2 hours in a well at 37° C. grZ14s-nvCyc peptide [Custom Peptide Synthesis; Peptron, Korea] at different concentrations was subsequently added to the well and allowed to incubate for 24 hours. The Abac10-cyc peptide served as a negative control. The P.a. control was Pseudomonas aeruginosa alone. […] Staining was performed with crystal violet at OD 595 nm.
(§7) A biofilm was created by culturing Pseudomonas aeruginosa (ATCC 27853) for 24 hours in a well at 37° C. Eqt2Z-cyc peptide at different concentrations was subsequently added to the well and allowed to incubate for 24 hours. The Abac10-cyc peptide served as a negative control. The P.a. control was Pseudomonas aeruginosa alone. […] Staining was performed with crystal violet at OD 595 nm.
as §7, with “grZ14s-nvCyc” for “Eqt2Z-cyc”
A biofilm was created by culturing Pseudomonas aeruginosa (ATCC 27853) for 24 hours in a well at 37° C. PhyscoZ-Cyc peptide [Custom Peptide Synthesis; Peptron, Korea] at different concentrations was subsequently added to the well and allowed to incubate for 24 hours. The P.a. control was Pseudomonas aeruginosa alone. […] Staining was performed with crystal violet at OD 595 nm.

[10] = 24-hour biofilm, 24-hour peptide incubation, crystal violet OD 595 nm

| Sequence | Biofilm prevention (%) ([1]; peptide 100 ng/ml) | Biofilm prevention (%) ([2]; peptide 100 ng/ml) | Biofilm prevention (%) ([3]; peptide 100 ng/ml) | Biofilm prevention (%) [4] [%] | Detachment (%) (100 ng/ml) [5] | Detachment (%) (100 ng/ml) [6] | Detachment (%) (100 ng/ml) [7] | Detachment (%) (100 ng/ml) [8] | Biofilm prevention (%) ([2]; peptide 10 ng/ml) | Biofilm prevention (%) ([3]; peptide 10 ng/ml) | Biofilm prevention (%) ([1]; peptide 10 ng/ml) | microorganism detachment ([9]; 2-hour biofilm, 24-hour peptide incubation, crystal violet OD 595 nm) | microorganism detachment ([9]; 2-hour biofilm, overnight peptide incubation) | microorganism detachment [9, 10] | microorganism detachment ([9]; overnight biofilm, overnight peptide incubation) |
| --- | --- | --- | --- | --- | --- | --- | --- | --- | --- | --- | --- | --- | --- | --- | --- |
| CRVESFNYDWYNVC (disulfide 1-14 (inferred)) [NilotiZ-cyc] | 87 | 30 | 90 | 63 | 65 | 65 | 40 |  |  |  |  |  |  |  |  |
| CSVPFDYNLYSNWC [SelagZ-cyc] (disulfide 1-14 (inferred)) | 80 |  | 88 | 88 | 35 |  | 67 | 50 | 80 |  |  |  |  |  |  |
| CSRYSSFDYDWYNVC (disulfide 1-15 (inferred)) [XenoZ-S-cyc] | 95 | 75 |  | 65 |  | 50 | 30 | 49 |  | 57 |  |  |  |  |  |
| CTVNSFDYDWYNVC (disulfide 1-14 (inferred)) [AnoliZ-cyc] |  | 55 | 95 | 75 | 72 | 72 | 90 |  |  |  | 92 |  |  |  |  |
| CSAPYNFNFYSNWC (disulfide 1-14 (inferred)) [EchoZ-cyc] | 80 |  | 90 | 85 | 35 |  | 65 | 60 | 80 |  |  |  |  |  |  |
| CSVPYDYNWYSNWC (disulfide 1-14 (inferred)) [Eqt2Z-cyc] |  |  |  |  |  |  |  |  |  |  |  | far greater microorganism detachment than in the P.a. control or negative control | far greater microorganism detachment than in the P.a. control or negative control | far greater microorganism detachment than in the P.a. control or negative control | far greater microorganism detachment than in the P.a. control |
| CKVNSFDYDWYNVC (disulfide 1-14 (inferred)) [MeleagZ-cyc] | 95 | 30 | 82 | 73 | 80 | 62 | 65 |  |  |  |  |  |  |  |  |
| CNVHSFDYDWYNVC (disulfide 1-14 (inferred)) [CanisZ-cyc] |  | 80 | 95 | 75 |  | 45 | 72 | 73 |  |  | 60 |  |  |  |  |
| CSVPFDYNLYSNWC [PhyscoZ-cyc] (also: cyclised) |  |  | 95 | 65 | 70 |  | 75 | 50 | 62 |  |  |  |  | far greater microorganism detachment than in the P.a. control |  |
| CRVESFDFDWYNIC (disulfide 1-14 (inferred)) [SalmoZ-cyc] | 95 | 55 |  | 80 | 75 | 73 | 80 |  |  | 90 |  |  |  |  |  |
| CTVHSFDYDWYNVC (disulfide 1-14 (inferred)) [CapraZ-cyc] | 90 | 25 | 68 | 42 | 55 | 60 | 65 |  |  |  |  |  |  |  |  |
| CSELSSFNFDWYNVC (disulfide 1-15 (inferred)) [CionaZ-S-cyc] | 52 | 68 | 75 | 90 |  | 42 | 78 | 80 |  |  |  |  |  |  |  |
| CRINSFDYDWYNVC (disulfide 1-14 (inferred)) [TetraoZ-cyc] |  | 25 | 45 | 52 | 43 | 55 |  |  |  |  | 70 |  |  |  |  |
